{"source": "patent US10059696B2", "about": "“Process for preparing 1,3-dihydroimidazole-2-thione derivatives” (BIAL-PORTELA & CA, S.A., priority 2011, dated 2018)", "origin": "cited, not measured here", "conditions": "able to cause central as well as peripheral effects", "data": [{"smiles": "NCc1c[nH]c(=S)n1[C@H]1CCc2c(F)cc(F)cc2C1", "note": "[nepicastat]", "values": [{"measurement": "blood brain barrier (BBB) crossing", "value": "found to cross the blood brain barrier"}]}]}
